Several values for one entry are separate records, joined by “and”; a condition that tells them apart may be missing. Identical values can stand only once.
Assays:
Experiment in all cases: radiometric filter-binding kinase assay, Kinase HotSpot
Settings in all cases: compound 0.5 µM; ATP 10 µM
[1] = biological target: ABL2 (human) (UniProt P42684)
[2] = biological target: AKT3 (human) (UniProt Q9Y243)
[3] = biological target: AURKB (human) (UniProt Q96GD4)
[4] = biological target: BMX (human) (UniProt P51813)
[5] = biological target: CAMKK1 (human) (UniProt Q8N5S9)
[6] = biological target: CSNK1G1 (human) (UniProt Q9HCP0)
[7] = biological target: CSNK2A2 (human) (UniProt P19784)
[8] = biological target: DCLK2 (human) (UniProt Q8N568)
[9] = biological target: DYRK4 (human) (UniProt Q9NR20)
[10] = biological target: EPHA1 (human) (UniProt P21709)
[11] = biological target: EPHA6 (human) (UniProt Q9UF33)
[12] = biological target: EPHB2 (human) (UniProt P29323)
[13] = biological target: FES (human) (UniProt P07332)
[14] = biological target: FGFR1 (human) (UniProt P11362)
[15] = biological target: FGFR3 (human) (UniProt P22607)
[16] = biological target: FRK (human) (UniProt P42685)
[17] = biological target: FYN (human) (UniProt P06241)
[18] = biological target: GSG2 (human) (UniProt Q8TF76)
[19] = biological target: GSK3B (human) (UniProt P49841)
[20] = biological target: HCK (human) (UniProt P08631)
[21] = biological target: JAK1 JH1 catalytic (human) (UniProt P23458)
[22] = biological target: LIMK1 (human) (UniProt P53667)
[23] = biological target: MAP2K1 (human) (UniProt Q02750)
[24] = biological target: MAPK13 (human) (UniProt O15264)
[25] = biological target: MET (human) (UniProt P08581)
[26] = biological target: MKNK2 (human) (UniProt Q9HBH9)
[27] = biological target: MYO3B (human) (UniProt Q8WXR4)
[28] = biological target: NUAK2 (human) (UniProt Q9H093)
[29] = biological target: PASK (human) (UniProt Q96RG2)
[30] = biological target: PIM3 (human) (UniProt Q86V86)
[31] = biological target: PLK2 (human) (UniProt Q9NYY3)
[32] = biological target: PNCK (human) (UniProt Q6P2M8)
[33] = biological target: PRKACG (human) (UniProt P22612)
[34] = biological target: PRKG1 (human) (UniProt Q13976)
[35] = biological target: PTK2B (human) (UniProt Q14289)
[36] = biological target: SRPK1 (human) (UniProt Q96SB4)
[37] = biological target: STK16 (human) (UniProt O75716)
[38] = biological target: TYK2 JH1 catalytic (human) (UniProt P29597)
[39] = biological target: ULK3 (human) (UniProt Q6PHR2)
[40] = biological target: VRK1 (human) (UniProt Q99986)
[41] = biological target: WEE1 (human) (UniProt P30291)
[42] = biological target: WNK3 (human) (UniProt Q9BYP7)

DYRK4 (human), sequence (Q9NR20 whole entry, looked up): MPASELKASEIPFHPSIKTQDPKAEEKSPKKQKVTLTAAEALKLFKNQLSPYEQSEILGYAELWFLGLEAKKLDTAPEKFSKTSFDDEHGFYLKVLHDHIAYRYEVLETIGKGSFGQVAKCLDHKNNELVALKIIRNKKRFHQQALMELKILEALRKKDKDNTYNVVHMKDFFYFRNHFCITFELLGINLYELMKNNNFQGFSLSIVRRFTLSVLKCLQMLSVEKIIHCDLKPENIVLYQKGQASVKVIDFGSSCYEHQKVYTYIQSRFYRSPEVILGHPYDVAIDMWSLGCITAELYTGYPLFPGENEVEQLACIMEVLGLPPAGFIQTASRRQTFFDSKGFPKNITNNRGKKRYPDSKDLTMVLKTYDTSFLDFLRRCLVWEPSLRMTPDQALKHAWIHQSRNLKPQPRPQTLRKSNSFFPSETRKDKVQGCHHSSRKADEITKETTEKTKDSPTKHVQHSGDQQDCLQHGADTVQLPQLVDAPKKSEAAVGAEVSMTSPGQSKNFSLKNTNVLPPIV
PTK2B (human), sequence (Q14289 whole entry, looked up): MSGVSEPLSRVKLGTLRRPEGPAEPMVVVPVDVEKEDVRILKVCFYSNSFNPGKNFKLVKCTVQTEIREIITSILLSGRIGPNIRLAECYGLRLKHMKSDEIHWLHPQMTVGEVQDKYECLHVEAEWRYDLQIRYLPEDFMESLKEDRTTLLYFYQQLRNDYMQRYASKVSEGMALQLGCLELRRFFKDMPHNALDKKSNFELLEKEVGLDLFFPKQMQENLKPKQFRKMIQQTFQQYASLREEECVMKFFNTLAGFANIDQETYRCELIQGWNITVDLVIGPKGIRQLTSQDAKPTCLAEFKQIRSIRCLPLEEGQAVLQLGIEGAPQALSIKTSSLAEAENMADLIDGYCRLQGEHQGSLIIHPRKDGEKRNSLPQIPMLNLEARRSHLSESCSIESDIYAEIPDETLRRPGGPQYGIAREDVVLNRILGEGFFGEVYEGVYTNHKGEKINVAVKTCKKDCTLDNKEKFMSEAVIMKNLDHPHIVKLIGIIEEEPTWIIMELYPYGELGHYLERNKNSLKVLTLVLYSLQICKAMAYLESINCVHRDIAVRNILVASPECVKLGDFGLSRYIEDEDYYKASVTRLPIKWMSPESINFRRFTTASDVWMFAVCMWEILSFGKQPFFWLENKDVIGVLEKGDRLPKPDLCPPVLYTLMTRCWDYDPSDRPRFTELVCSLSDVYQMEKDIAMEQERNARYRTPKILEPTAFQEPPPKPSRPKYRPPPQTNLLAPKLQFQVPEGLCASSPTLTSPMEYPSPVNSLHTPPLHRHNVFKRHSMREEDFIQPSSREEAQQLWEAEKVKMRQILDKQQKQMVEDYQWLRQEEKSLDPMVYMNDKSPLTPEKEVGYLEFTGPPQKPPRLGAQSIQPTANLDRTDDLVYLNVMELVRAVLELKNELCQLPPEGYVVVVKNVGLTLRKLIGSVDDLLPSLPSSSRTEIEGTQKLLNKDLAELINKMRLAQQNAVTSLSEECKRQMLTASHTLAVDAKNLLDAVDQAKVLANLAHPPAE
MYO3B (human), sequence (Q8WXR4 whole entry, looked up): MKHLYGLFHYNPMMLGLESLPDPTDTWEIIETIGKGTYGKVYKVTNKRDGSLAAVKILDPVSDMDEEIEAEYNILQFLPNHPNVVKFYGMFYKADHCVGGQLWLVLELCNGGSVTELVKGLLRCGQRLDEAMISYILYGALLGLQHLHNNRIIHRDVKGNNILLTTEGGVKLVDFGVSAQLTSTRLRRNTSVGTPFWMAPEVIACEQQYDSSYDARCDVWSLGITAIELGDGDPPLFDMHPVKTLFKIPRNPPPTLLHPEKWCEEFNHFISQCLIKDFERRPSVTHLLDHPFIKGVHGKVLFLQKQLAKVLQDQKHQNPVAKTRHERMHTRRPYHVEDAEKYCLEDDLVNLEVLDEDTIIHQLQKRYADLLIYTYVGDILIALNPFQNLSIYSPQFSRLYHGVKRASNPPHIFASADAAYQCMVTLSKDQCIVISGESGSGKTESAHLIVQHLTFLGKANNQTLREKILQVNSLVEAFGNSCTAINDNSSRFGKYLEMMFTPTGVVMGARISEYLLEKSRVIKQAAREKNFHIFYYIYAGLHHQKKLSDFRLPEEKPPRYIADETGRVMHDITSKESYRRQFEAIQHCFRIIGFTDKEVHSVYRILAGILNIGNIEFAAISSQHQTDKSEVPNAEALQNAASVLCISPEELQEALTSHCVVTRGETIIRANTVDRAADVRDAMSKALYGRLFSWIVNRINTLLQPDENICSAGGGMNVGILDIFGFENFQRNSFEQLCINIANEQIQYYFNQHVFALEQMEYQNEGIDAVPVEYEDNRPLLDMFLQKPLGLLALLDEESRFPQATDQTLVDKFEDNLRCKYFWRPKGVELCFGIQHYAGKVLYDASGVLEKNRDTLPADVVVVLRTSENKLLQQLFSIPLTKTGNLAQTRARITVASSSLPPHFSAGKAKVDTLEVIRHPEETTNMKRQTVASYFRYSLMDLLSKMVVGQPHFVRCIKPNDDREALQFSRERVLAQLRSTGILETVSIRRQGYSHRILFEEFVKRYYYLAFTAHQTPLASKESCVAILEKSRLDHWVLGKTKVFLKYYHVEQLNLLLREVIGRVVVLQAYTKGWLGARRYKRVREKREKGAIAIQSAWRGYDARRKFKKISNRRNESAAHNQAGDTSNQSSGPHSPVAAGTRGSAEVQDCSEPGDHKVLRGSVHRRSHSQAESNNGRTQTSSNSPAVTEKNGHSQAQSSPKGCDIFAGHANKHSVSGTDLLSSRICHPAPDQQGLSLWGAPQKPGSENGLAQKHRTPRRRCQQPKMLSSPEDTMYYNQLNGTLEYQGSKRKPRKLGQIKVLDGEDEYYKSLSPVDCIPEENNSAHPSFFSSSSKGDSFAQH
EPHA6 (human), sequence (Q9UF33 whole entry, looked up): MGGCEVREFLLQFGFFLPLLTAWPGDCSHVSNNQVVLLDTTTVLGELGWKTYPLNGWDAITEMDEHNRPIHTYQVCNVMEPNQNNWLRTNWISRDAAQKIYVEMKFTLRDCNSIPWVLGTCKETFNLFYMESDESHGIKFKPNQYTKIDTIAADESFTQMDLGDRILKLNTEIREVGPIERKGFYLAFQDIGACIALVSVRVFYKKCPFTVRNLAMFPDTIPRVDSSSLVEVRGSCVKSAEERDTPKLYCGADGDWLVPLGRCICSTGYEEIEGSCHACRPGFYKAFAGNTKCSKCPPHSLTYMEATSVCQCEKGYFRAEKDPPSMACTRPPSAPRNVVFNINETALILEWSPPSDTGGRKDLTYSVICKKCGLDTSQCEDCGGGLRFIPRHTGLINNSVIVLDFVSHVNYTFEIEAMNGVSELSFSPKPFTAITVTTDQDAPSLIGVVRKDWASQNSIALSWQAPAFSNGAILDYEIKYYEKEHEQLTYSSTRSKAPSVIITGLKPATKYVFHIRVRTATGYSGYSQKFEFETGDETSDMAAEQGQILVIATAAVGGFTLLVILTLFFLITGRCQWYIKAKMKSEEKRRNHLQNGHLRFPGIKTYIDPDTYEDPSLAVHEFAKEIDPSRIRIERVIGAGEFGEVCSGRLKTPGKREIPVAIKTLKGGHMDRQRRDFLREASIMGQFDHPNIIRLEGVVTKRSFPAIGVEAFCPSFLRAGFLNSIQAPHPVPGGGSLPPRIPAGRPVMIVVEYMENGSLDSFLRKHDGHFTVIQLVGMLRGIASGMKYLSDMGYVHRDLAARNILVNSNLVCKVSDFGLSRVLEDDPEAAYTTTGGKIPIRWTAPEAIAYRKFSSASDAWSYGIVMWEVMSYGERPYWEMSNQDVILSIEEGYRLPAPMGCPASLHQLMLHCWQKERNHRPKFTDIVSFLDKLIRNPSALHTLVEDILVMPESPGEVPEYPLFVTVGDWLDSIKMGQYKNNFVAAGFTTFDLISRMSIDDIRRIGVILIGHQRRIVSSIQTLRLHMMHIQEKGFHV
MAP2K1 (human), sequence (Q02750 whole entry, looked up): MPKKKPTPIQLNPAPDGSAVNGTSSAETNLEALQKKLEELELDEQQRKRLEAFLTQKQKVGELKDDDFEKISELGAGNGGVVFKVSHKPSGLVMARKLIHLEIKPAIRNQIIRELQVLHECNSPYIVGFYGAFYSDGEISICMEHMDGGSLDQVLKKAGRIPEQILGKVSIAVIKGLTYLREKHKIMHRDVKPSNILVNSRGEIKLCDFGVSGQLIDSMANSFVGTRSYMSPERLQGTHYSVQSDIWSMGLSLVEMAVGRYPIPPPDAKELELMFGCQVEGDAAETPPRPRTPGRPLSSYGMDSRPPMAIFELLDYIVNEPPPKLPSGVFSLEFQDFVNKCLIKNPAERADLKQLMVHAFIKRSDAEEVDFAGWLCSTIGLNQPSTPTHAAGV
CSNK2A2 (human), sequence (P19784 whole entry, looked up): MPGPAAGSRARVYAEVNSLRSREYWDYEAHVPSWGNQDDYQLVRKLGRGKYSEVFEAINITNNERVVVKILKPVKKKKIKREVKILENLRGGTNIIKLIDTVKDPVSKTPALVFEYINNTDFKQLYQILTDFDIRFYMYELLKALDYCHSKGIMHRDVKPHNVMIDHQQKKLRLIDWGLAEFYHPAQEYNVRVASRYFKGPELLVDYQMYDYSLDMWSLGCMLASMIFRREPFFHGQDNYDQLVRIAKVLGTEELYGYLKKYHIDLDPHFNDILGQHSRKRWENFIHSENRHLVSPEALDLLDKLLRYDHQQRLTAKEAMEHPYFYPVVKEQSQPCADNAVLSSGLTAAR

Molecule `c1ccc2c(-c3ccncc3)c[nH]c2c1` has a residual activity [1] of 91.9%, a residual activity [2] of 101% and a residual activity [3] of 95.9%. The residual activity [4] was 95.8%, the residual activity [5] was 122% and the residual activity [6] was 79.2%. The residual activity [7] was 94.9%, the residual activity [8] was 98.1% and the residual activity [9] was 98.7%. For the same molecule, the residual activity [10] was 105%, the residual activity [11] was 104% and the residual activity [12] was 114%. For the same molecule, the residual activity [13] was 105%, the residual activity [14] was 92.7% and the residual activity [15] was 98.9%. The residual activity [16] was 106%, the residual activity [17] was 98.7% and the residual activity [18] was 62.3%. For the same molecule, the residual activity [19] was 104%, the residual activity [20] was 99.5% and the residual activity [21] was 109%. The residual activity [22] was 92%, the residual activity [23] was 96.5% and the residual activity [24] was 123%. The residual activity [25] was 91.4%, the residual activity [26] was 39.2% and the residual activity [27] was 96.4%. It also gave a residual activity [28] of 136%, a residual activity [29] of 101% and a residual activity [30] of 103%. For the same molecule, the residual activity [31] was 99.9%, the residual activity [32] was 98.5% and the residual activity [33] was 107%. For the same molecule, the residual activity [34] was 64.8% and 77.7%, the residual activity [35] was 95.3% and the residual activity [36] was 108%. It also gave a residual activity [37] of 110%, a residual activity [38] of 101% and a residual activity [39] of 83%. The residual activity [40] was 101%, the residual activity [41] was 89.3% and the residual activity [42] was 100%.

For `N#Cc1c[nH]c2c[nH]/c(=N\Cc3cccnc3)cc2/c1=N\c1ccc(F)c(Cl)c1`, the residual activity [1] was 87.4%, the residual activity [2] was 95.1% and the residual activity [3] was 90.1%. It also gave a residual activity [4] of 84%, a residual activity [5] of 105% and a residual activity [6] of 87%. For the same molecule, the residual activity [7] was 75.2%, the residual activity [8] was 97.2% and the residual activity [9] was 84.4%. For the same molecule, the residual activity [10] was 94.5%, the residual activity [11] was 76.2% and the residual activity [12] was 97.4%. For the same molecule, the residual activity [13] was 108%, the residual activity [14] was 83.4% and the residual activity [15] was 91.7%. It also gave a residual activity [16] of 101%, a residual activity [17] of 103% and a residual activity [18] of 82.5%. It also gave a residual activity [19] of 99.8%, a residual activity [20] of 92.5% and a residual activity [21] of 93.6%. The residual activity [22] was 101%, the residual activity [23] was 86.2% and the residual activity [24] was 101%. For the same molecule, the residual activity [25] was 94.9%, the residual activity [26] was 79.3% and the residual activity [27] was 87.9%. For the same molecule, the residual activity [28] was 135%, the residual activity [29] was 124% and the residual activity [30] was 85%. The residual activity [31] was 110%, the residual activity [32] was 99.8% and the residual activity [33] was 115%. For the same molecule, the residual activity [34] was 87.2% and 90.8%, the residual activity [35] was 100% and the residual activity [36] was 102%. It also gave a residual activity [37] of 93.8%, a residual activity [38] of 103% and a residual activity [39] of 72%. The residual activity [40] was 99.2%, the residual activity [41] was 74.3% and the residual activity [42] was 92.4%.

Molecule `COc1ccc(S(=O)(=O)N(CCO)c2ccccc2CN(C)C/C=C/c2ccc(Cl)cc2)cc1` has a residual activity [1] of 97.4%, a residual activity [2] of 105% and a residual activity [3] of 106%. For the same molecule, the residual activity [4] was 101%, the residual activity [5] was 106% and the residual activity [6] was 105%. It also gave a residual activity [7] of 93.7%, a residual activity [8] of 99.1% and a residual activity [9] of 99.6%. The residual activity [10] was 101%, the residual activity [11] was 95.3% and the residual activity [12] was 97.7%. It also gave a residual activity [13] of 96.3%, a residual activity [14] of 99.5% and a residual activity [15] of 70.1%. For the same molecule, the residual activity [16] was 106%, the residual activity [17] was 103% and the residual activity [18] was 95.3%. The residual activity [19] was 102%, the residual activity [20] was 97.8% and the residual activity [21] was 111%. The residual activity [22] was 102%, the residual activity [23] was 94.3% and the residual activity [24] was 102%. The residual activity [25] was 98.2%, the residual activity [26] was 102% and the residual activity [27] was 90.2%. For the same molecule, the residual activity [28] was 113%, the residual activity [29] was 103% and the residual activity [30] was 105%. It also gave a residual activity [31] of 102%, a residual activity [32] of 99.8% and a residual activity [33] of 104%. For the same molecule, the residual activity [34] was 93.2% and 94.7%, the residual activity [35] was 106% and the residual activity [36] was 105%. It also gave a residual activity [37] of 102%, a residual activity [38] of 110% and a residual activity [39] of 106%. For the same molecule, the residual activity [40] was 96.4%, the residual activity [41] was 96% and the residual activity [42] was 99.4%.

Work on `O=C1c2ccccc2-c2nc3nnnn3nc21` yielded a residual activity [1] of 89.7%, a residual activity [2] of 81.2% and a residual activity [3] of 84.7%. The residual activity [4] was 79%, the residual activity [5] was 74.9% and the residual activity [6] was 85.2%. The residual activity [7] was 76.2%, the residual activity [8] was 86.5% and the residual activity [9] was 88.5%. It also gave a residual activity [10] of 73.1%, a residual activity [11] of 106% and a residual activity [12] of 86.1%. It also gave a residual activity [13] of 87.6%, a residual activity [14] of 24.2% and a residual activity [15] of 26.7%. For the same molecule, the residual activity [16] was 33.9%, the residual activity [17] was 76.2% and the residual activity [18] was 79.2%. It also gave a residual activity [19] of 83.5%, a residual activity [20] of 84% and a residual activity [21] of 101%. For the same molecule, the residual activity [22] was 65%, the residual activity [23] was 88.7% and the residual activity [24] was 95.6%. It also gave a residual activity [25] of 83.3%, a residual activity [26] of 78.3% and a residual activity [27] of 88.4%. For the same molecule, the residual activity [28] was 92.5%, the residual activity [29] was 73.4% and the residual activity [30] was 93.3%. The residual activity [31] was 37.3%, the residual activity [32] was 83.4% and the residual activity [33] was 88.5%. For the same molecule, the residual activity [34] was 109% and 133%, the residual activity [35] was 52.1% and the residual activity [36] was 109%. The residual activity [37] was 80.5%, the residual activity [38] was 77.2% and the residual activity [39] was 103%. The residual activity [40] was 90.5%, the residual activity [41] was 70.9% and the residual activity [42] was 116%.
